Consider 1 compound from US20050085509A1, “Piperidin-2-one derivative compounds and drugs containing these compounds as the active ingredient” (priority 2001, published 2005).

A value given as a limit tells only on which side of the number the result lay.

Assay [1] deals with T1, recombinant human p38αMAP kinase (Homo sapiens, UniProt Q16539).
T1 construct: purchased Upstate Biotechnology Inc. #14-251
In words: p38αMAP kinase inhibitory activity (1): ATF-2 phosphorylation, Western blotting. The note with it: Western blotting with anti-phosphorylated ATF-2 antibody; FIG. 1. The class given is biochemical. From the text: (1) Study of p38αMAP Kinase Inhibitory Activity (1)
Using activation transcription factor 2 (activating transcription factor 2; ATF-2, Cell Signaling Inc., #9224L) which is a substrate of p38αMAP kinase, the inhibitory effect of the compound of the present invention on the ATF-2 phosphorylation by recombinant human p38αMAP kinase (Upstate Biotechnology Inc., #14-251) was studied by the Western-blotting method using the anti-phosphorylated ATF-2 antibody (Cell Signaling Inc., #9221L). In other words, 10 μL of a solution of the compound of the present invention at a known concentration was added to 10 μL of the kinase buffer (Cell Signaling Inc., #9802) containing recombinant human p38αMAP kinase (100 ng/tube) and pre-incubated for 10 minutes at 30° C. Then, 20 μL of adenosine triphosphate (ATP)/ATF-2 mixture was added and after the incubation of 30 minutes at 30° C., 20 μL of SDS buffer (187.5 mM Tris/6% SDS/30% glycerol/150 mM DTT/0.03% bromophenol blue) was added to stop the enzyme reaction. After heating at 100° C. for 5 minutes, mixing and centrifugation were conducted. After re-mixing, 20 μL of the sample was subjected to an electrophoresis on SDS-PAGE gel (10-20%, Daiichi Pure Chemicals Co., Ltd.). […] After washing with TBS-T solution, phosphorylated ATF-2 was detected using Western blotting detection reagent (Amersham Pharmacia Biotech).
In general terms: A western blot detects proteins with antibodies after separation by electrophoresis.

In assay [2] the target is T1, recombinant human p38αMAP kinase. Briefly: p38αMAP kinase inhibitory activity (2): ATF-2 phosphorylation, Alpha Screen. In kind it is biochemical. The note with it: 30° C., 30 minutes, read-out: IC50, inhibition of ATF-2 phosphorylation by p38αMAP kinase. As to the method:
(2) Study of p38αMAP Kinase Inhibitory Activity (2)
Using activation transcription factor 2 (hereinafter abbreviated as ATF-2) which is a substrate of p38αMAP kinase, the inhibition effect of the compound of the present invention on the ATF-2 phosphorylation by recombinant human p38αMAP kinase was examined.
A kinase buffer (25 mM Tris-HCl (pH 7.5), 5 mM β-glycerophosphate, 2 mM dithiothreitol, 0.1 mM Na3VO4, 10 mM MgCl2) containing recombinant human p38αMAP kinase (Upstate Biotechnology #14-251) (5 μL) was added to a 384-well plate for fluorescence measurement ([…] protein/well). […] Separately, 5 μL of a substrate mixture prepared with the kinase buffer (biotinylated ATF-2 (5 μg/mL) (Upstate Biotechnology, #14-432), adenosine triphosphate (90 μmol/L) (Sigma #FL-AAS) and anti-phosphorylated ATF-2 antibody (20-fold dilution) (Cell Signaling Technology, #9221L) were added and an enzyme reaction was carried out at 30° C. for 30 minutes. After completion of the reaction, the enzyme reaction was terminated by adding 5 μL of Hepes buffer containing 0.25% BSA and 100 mM EDTA. The amount of complex of phosphorylated ATF2 and anti-phosphorylated ATF2 generated by this reaction was measured using Alpha Screen™ Rabbit Detection kit (Packard #6760607). […]

The subject of assay [3] is THP-1. In words: Inhibition activity against TNF-α production using human cell line THP-1. The class given is cell-based. The settings on record: 1.5 h, THP-1 cells, LPS stimulation, 90 minutes, ELISA, read-out: IC50, inhibition of LPS-induced TNF-α production. As to the method:
(4) Inhibition Activity Against TNF-α Production Using Human Cell Line
Using THP-1, which is a human monocyte cell line, the inhibition effect of the compound of the present invention on the TNF-α production induced by lipopolyliposaccharide (LPS) stimulation was studied.
Each 50 μL of lipopolyliposaccharide (LPS; Difco #3120-25-0) prepared at the concentration of 40 ng/mL using RPMI-1640 medium containing 10% fetal calf serum (hereinafter abbreviated as RPMI-1640) and RPMI-1640 containing the compound of the present invention was added to a 96-well plate for tissue culture. […] After completion of the reaction, the culture medium supernatant was recovered and the amount of produced TNF-α was measured using an ELISA kit (Invitrogen, #850090192).
The inhibition activity against TNF-α production, which is the effect of the compound of the present invention, was calculated as an inhibition rate (%) by the following formula. Inhibition rate (%)={(AC−AX)/(AC−AB)}×100 • AB: Measured value without LPS induction • AC: Measured value with LPS induction in the absence of the compound • AX: Measured value with LPS induction in the presence of the compound

T1 sequence (Q16539 whole entry): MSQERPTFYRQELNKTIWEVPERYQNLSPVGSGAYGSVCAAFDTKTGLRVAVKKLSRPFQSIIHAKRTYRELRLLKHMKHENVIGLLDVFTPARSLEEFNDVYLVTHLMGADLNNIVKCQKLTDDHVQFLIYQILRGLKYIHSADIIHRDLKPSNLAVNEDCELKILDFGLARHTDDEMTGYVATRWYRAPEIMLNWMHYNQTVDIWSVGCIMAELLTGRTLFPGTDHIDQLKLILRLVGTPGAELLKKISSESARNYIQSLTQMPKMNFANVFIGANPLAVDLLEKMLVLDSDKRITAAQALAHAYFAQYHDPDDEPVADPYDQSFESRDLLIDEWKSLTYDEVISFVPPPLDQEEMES

Regarding `O=C1CCC(Cc2ccc(F)cc2F)CN1c1c(Cl)cccc1Cl` (stereo not drawn) [Example 1 (1), 1-(2,6-dichlorophenyl)-5-(2,4-difluorobenzyl)piperidin-2-one], the “concentration at which ATF-2 phosphorylation by p38αMAP kinase was inhibited” value in assay [1] was no less than 0.3 µM. Besides, the IC50 (commonly the concentration needed to halve the response being measured) worked out at 0.0429 µM in assay [2] and 0.0145 µM in assay [3].
